Results: patent US11566007B2, “Ras inhibitors” (Revolution Medicines, Inc., priority 2019, dated 2023)
pEC50, pIC50: −log10 of the molar value.

Key:
KRAS Q61H = KRAS Q61H (Homo sapiens (Human), UniProt P01116+P62937, Q61H); experiment: Ras-Raf (BRAF RBD) disruption / FRET / MOA assay, KRAS Q61H; format: biochemical; settings: Ras-Raf disruption/FRET/MOA assay; class symbols; read-out: KRAS Q61H FRET data IC50
Method: The purpose of this biochemical assay is to measure the ability of test compounds to facilitate ternary complex formation between a nucleotide-loaded Ras isoform and cyclophilin A; the resulting ternary complex disrupts binding to a BRAF^RBD construct, inhibiting Ras signaling through a RAF effector.
(§1) […]. Compound is present in plate wells as a 10-point 3-fold dilution series starting at a final concentration of 30 μM. After incubation at 25° C. for 3 hours, a mixture of Anti-His Eu-W1024 and anti-GST allophycocyanin is then added to assay sample wells at final concentrations of 10 nM and 50 nM, respectively, and the reaction incubated for an additional 1.5 hours. […] Compounds that facilitate disruption of a Ras:RAF complex are identified as those eliciting a decrease in the TR-FRET ratio relative to DMSO control wells.
Note—The following protocol describes a procedure for monitoring disruption of K-Ras G12C (GMP-PNP) binding to BRAF^RBD by a compound of the invention. This protocol may also be executed substituting other Ras proteins or nucleotides.
The purpose of this biochemical assay was to measure the ability of test compounds to facilitate ternary complex formation between a nucleotide-loaded K-Ras isoform and Cyclophilin A; the resulting ternary complex disrupts binding to a BRAF^RBD construct, inhibiting K-Ras signaling through a RAF effector. Data is reported as IC50 values.
as §1, with “Compound was” for “Compound is”, “allophycocyanin was” for “allophycocyanin is”, “a K-Ras:RAF” for “a Ras:RAF”, “complex were” for “complex are”

KRAS G12S = KRAS G12S (Homo sapiens (Human), UniProt P01116+P62937, G12S); experiment: Ras-Raf (BRAF RBD) disruption / FRET / MOA assay, KRAS G12S; format: biochemical; settings: Ras-Raf disruption/FRET/MOA assay; class symbols; read-out: KRAS G12S FRET data IC50
Procedure, shortened: (§2)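 TR-FRET read-out: a drop in ratio relative to DMSO wells marks disruption of the Ras:RAF complex, reported as IC50. Compounds (3-fold series, 10 points, top 30 μM final) incubated 3 h at 25° C before Eu-anti-His 10 nM and APC-anti-GST 50 nM, 1.5 h more.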

KRAS G12D = KRAS G12D (Homo sapiens (Human), UniProt P01116+P62937, G12D); experiment: Ras-Raf (BRAF RBD) disruption / FRET / MOA assay, KRAS G12D; format: biochemical; settings: Ras-Raf disruption/FRET/MOA assay; class symbols; read-out: KRAS G12D FRET data IC50
Procedure, shortened: as §2

K-Ras G12C = K-Ras G12C (Homo sapiens (Human), UniProt P01116+P62937, G12C); experiment: Ras-Raf (BRAF RBD) disruption / FRET / MOA assay, KRAS G12C; format: biochemical; settings: KRAS G12C; Ras-Raf disruption/FRET/MOA assay; read-out: IC50* KRAS G12C FRET data
Procedure, shortened: as §2

NRAS G12C = NRAS G12C (Homo sapiens (Human), UniProt P01111+P62937, G12C); experiment: Ras-Raf (BRAF RBD) disruption / FRET / MOA assay, NRAS G12C; format: biochemical; settings: read-out: IC50* NRAS G12C FRET data
Procedure, shortened: as §2

NCI-H358 (K-Ras G12C) = experiment: CellTiter-Glo cell viability assay, NCI-H358; format: cell-based, human; settings: Homo sapiens, NCI-H358, 120 h, NCI-H358, 5-day treatment; class symbols; read-out: Additional H358 Cell Viability assay data (K-Ras G12C, IC50)
Procedure, shortened: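 Cells seeded, compound added directly, 5-day exposure. Plates to RT ~30 min, CellTiter-Glo luminescence read. Normalized to DMSO avg (x100); 4-parameter logistic fit.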

KRAS WT = KRAS WT (Homo sapiens (Human), UniProt P01116+P62937); experiment: Ras-Raf (BRAF RBD) disruption / FRET / MOA assay, KRAS WT; format: biochemical; settings: read-out: IC50* KRAS WT FRET data
Procedure, shortened: as §2

KRAS G13D = KRAS G13D (Homo sapiens (Human), UniProt P01116+P62937, G13D); experiment: Ras-Raf (BRAF RBD) disruption / FRET / MOA assay, KRAS G13D; format: biochemical; settings: read-out: IC50* KRAS G13D FRET data
Procedure, shortened: as §2

K-Ras G13C = K-Ras G13C (Homo sapiens (Human), UniProt P01116+P62937, G13C); experiment: Ras-Raf (BRAF RBD) disruption / FRET / MOA assay, KRAS G13C; format: biochemical; settings: KRAS G13C; Ras-Raf disruption/FRET/MOA assay; read-out: IC50* KRAS G13C FRET data
Procedure, shortened: as §2

KRAS G12V = KRAS G12V (Homo sapiens (Human), UniProt P01116+P62937, G12V); experiment: Ras-Raf (BRAF RBD) disruption / FRET / MOA assay, KRAS G12V; format: biochemical; settings: read-out: IC50* KRAS G12V FRET data
Procedure, shortened: as §2

[1] = tested on: NCI-H358 cells (K-Ras G12C); experiment: Potency assay: pERK in NCI-H358 cells; format: cell-based, human; settings: Homo sapiens, NCI-H358; H358 KRAS G12C; read-out: pERK EC50
Procedure, shortened: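 pERK decrease read by AlphaLISA SureFire p-ERK1/2 or In-Cell Western after 4 h compound exposure at 37 °C, 5% CO2.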

KRAS Q61H, sequence (P01116-2 other isoform, or with tags, fused parts or gaps Q61H): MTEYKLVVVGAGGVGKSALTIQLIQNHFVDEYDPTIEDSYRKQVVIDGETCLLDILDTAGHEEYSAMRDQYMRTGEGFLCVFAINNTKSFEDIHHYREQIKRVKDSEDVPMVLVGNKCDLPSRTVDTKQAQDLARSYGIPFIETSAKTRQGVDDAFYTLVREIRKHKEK
KRAS Q61H, sequence (P62937 whole entry, canonical isoform): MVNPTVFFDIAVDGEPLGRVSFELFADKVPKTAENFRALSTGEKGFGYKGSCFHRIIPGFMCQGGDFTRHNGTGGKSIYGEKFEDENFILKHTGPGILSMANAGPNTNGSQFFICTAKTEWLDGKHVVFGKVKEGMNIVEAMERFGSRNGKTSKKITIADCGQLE
K-Ras G13C, sequence (P01116-2 other isoform, or with tags, fused parts or gaps G13C): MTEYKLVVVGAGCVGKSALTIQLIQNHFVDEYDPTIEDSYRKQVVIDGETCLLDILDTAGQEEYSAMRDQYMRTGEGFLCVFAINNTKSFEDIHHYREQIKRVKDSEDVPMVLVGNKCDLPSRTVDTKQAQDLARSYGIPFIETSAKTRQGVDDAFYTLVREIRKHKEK
K-Ras G13C, sequence (P62937 whole entry): as the sequence (P62937 whole entry, canonical isoform) above
KRAS G12D, sequence (P01116-2 other isoform, or with tags, fused parts or gaps G12D): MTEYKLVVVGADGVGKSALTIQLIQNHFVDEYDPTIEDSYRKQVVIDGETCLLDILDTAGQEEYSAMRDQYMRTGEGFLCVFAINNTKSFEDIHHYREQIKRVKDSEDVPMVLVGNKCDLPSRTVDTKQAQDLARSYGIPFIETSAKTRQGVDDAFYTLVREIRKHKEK
KRAS G12D, sequence (P62937 whole entry): as the sequence (P62937 whole entry, canonical isoform) above
KRAS G12S, sequence (P01116-2 other isoform, or with tags, fused parts or gaps G12S): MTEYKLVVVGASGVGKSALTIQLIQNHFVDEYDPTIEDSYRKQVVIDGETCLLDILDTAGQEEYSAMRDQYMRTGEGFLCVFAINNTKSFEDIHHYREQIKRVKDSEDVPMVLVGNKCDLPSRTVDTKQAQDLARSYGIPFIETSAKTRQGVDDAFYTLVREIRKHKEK
KRAS G12S, sequence (P62937 whole entry): as the sequence (P62937 whole entry, canonical isoform) above
NRAS G12C, sequence (P01111 whole entry G12C): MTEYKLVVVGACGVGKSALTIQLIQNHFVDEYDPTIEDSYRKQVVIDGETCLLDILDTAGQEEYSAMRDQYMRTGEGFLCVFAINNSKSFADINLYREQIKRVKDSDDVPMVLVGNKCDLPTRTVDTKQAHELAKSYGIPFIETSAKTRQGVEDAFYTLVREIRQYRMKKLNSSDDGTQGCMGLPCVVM
NRAS G12C, sequence (P62937 whole entry): as the sequence (P62937 whole entry, canonical isoform) above
KRAS G12V, sequence (P01116-2 other isoform, or with tags, fused parts or gaps G12V): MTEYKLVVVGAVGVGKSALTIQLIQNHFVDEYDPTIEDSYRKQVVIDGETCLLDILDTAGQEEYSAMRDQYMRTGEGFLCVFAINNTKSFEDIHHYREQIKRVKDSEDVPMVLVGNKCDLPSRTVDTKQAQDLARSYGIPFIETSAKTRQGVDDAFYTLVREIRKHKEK
KRAS G12V, sequence (P62937 whole entry): as the sequence (P62937 whole entry, canonical isoform) above
K-Ras G12C, sequence (P01116-2 other isoform, or with tags, fused parts or gaps G12C): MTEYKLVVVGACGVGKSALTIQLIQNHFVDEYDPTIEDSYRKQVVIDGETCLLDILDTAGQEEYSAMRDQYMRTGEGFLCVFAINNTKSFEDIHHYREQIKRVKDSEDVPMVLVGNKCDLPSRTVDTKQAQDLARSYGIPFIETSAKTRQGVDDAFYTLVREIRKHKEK
K-Ras G12C, sequence (P62937 whole entry): as the sequence (P62937 whole entry, canonical isoform) above
KRAS WT, sequence (P01116-2 other isoform, or with tags, fused parts or gaps): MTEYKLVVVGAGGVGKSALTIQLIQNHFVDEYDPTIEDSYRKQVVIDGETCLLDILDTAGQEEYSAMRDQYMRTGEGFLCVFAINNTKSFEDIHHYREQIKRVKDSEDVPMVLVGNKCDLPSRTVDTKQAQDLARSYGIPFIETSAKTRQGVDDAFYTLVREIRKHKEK
KRAS WT, sequence (P62937 whole entry): as the sequence (P62937 whole entry, canonical isoform) above
KRAS G13D, sequence (P01116-2 other isoform, or with tags, fused parts or gaps G13D): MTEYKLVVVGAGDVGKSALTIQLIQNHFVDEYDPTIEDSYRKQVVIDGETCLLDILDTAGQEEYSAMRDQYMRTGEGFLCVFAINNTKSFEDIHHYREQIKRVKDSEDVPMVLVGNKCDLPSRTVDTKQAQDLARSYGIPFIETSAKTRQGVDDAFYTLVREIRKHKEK
KRAS G13D, sequence (P62937 whole entry): as the sequence (P62937 whole entry, canonical isoform) above

Row | Compound | pIC50 (KRAS Q61H) | pIC50 (KRAS G12S) | pIC50 (KRAS G12D) | pIC50 (K-Ras G12C) | pIC50 (NRAS G12C) | pIC50 (NCI-H358 (K-Ras G12C)) | pIC50 (KRAS WT) | pIC50 (KRAS G13D) | pIC50 (K-Ras G13C) | pIC50 (KRAS G12V) | pEC50 [1]
1 | C=CC(=O)N1CC[C@H](C(=O)N(C)[C@H](C(=O)N[C@H]2Cc3cc(O)cc(c3)-c3ccc4c(c3)c(c(-c3ccc5c(c3)OCCN5C)n4CC)CC(C)(C)COC(=O)[C@@H]3CCCN(N3)C2=O)C(C)C)C1 [Example A050] | 5.00 to 6.00 | 5.00 to 6.00 | < 5.00 | – | – | – | – | – | – | – | –
2 | C=CC(=O)N1CC[C@H](C(=O)N(C)[C@H](C(=O)N[C@H]2Cc3cc(O)cc(c3)-c3cc(F)c4c(c3)c(c(-c3ccccc3CCOC)n4CC)CC(C)(C)COC(=O)[C@@H]3CCCN(N3)C2=O)C(C)C)C1 [Example A053] | 5.00 to 6.00 | – | < 5.00 | – | – | – | – | – | – | – | –
3 | C=CC(=O)N1CC[C@H](C(=O)N(C)[C@H](C(=O)N[C@H]2Cc3cc(O)cc(c3)-c3ccc4c(c3)c(c(-c3cccnc3N3CC(OC)C3)n4CC)CC(C)(C)COC(=O)[C@@H]3CCCN(N3)C2=O)C(C)C)C1 [Example A060] | 5.00 to 6.00 | 5.00 to 6.00 | < 5.00 | – | – | – | – | – | – | – | –
4 | C=CC(=O)N1CC[C@H](C(=O)N(C)[C@H](C(=O)N[C@H]2Cc3cc(O)cc(c3)-c3ccc4c(c3)c(c(-c3cncnc3)n4CC)CC(C)(C)COC(=O)[C@@H]3CCCN(N3)C2=O)C(C)C)C1 [Example A061] | 5.00 to 6.00 | 5.00 to 6.00 | < 5.00 | – | – | – | – | – | – | – | –
5 | C=CC(=O)N1CC[C@H](C(=O)N(C)[C@H](C(=O)N[C@H]2Cc3cc(O)cc(c3)-c3ccc4c(c3)c(c(C3=C(COC)CCCC3)n4CC)CC(C)(C)COC(=O)[C@@H]3CCCN(N3)C2=O)C(C)C)C1 [Example A064] | 6.00 to 7.00 | 6.00 to 7.00 | < 5.00 | – | – | – | – | – | – | – | –
6 | C=CC(=O)N1CC[C@H](C(=O)N(C)[C@H](C(=O)N[C@H]2Cc3cc(O)cc(c3)-c3ccc4c(c3)c(c(-c3cncc(COC)c3)n4CC)CC(C)(C)COC(=O)[C@@H]3CCCN(N3)C2=O)C(C)C)C1 [Example A083] | 6.00 to 7.00 | 6.00 to 7.00 | < 5.00 | – | – | – | – | – | – | – | –
7 | CCn1c(-c2cccnc2[C@H](C)OC)c2c3cc(ccc31)-c1cccc(c1)C[C@H](NC(=O)[C@H](C(C)C)N(C)C(=O)[C@H]1CCN(C(=O)C#C[C@@H]3COCCN3C)C1)C(=O)N1CCC[C@H](N1)C(=O)OCC(C)(C)C2 [Example A528] | – | 5.00 to 6.00 | < 5.00 | 7.00 to 8.00 | 7.00 to 8.00 | > 8.00 | 5.00 to 6.00 | < 5.00 | 5.00 to 6.00 | 5.00 to 6.00 | > 5.30
8 | CCn1c(-c2cccnc2[C@H](C)OC)c2c3cc(ccc31)-c1cc(O)cc(c1)C[C@H](NC(=O)[C@H](C(C)C)N(C)C(=O)c1ncc(NC(=O)/C=C/CN(C)C)n1C)C(=O)N1CCC[C@H](N1)C(=O)OCC(C)(C)C2 [Example A529] | – | 6.00 to 7.00 | 6.00 to 7.00 | > 8.00 | > 8.00 | 7.00 to 8.00 | 6.00 to 7.00 | 6.00 to 7.00 | > 8.00 | 6.00 to 7.00 | > 5.30
9 | CCn1c(-c2cccnc2[C@H](C)OC)c2c3cc(ccc31)-c1cccc(c1)C[C@H](NC(=O)[C@H](C(C)C)N(C)C(=O)[C@H]1CCN(C(=O)C#CC3(N(C)C)CCOC3)C1)C(=O)N1CCC[C@H](N1)C(=O)OCC(C)(C)C2 (some centres unmarked) [Example A533] | – | 5.00 to 6.00 | < 5.00 | 7.00 to 8.00 | 7.00 to 8.00 | > 8.00 | 5.00 to 6.00 | < 5.00 | 5.00 to 6.00 | 5.00 to 6.00 | > 5.30
